In PMC11790763, “A Peptide Motif Covering Splice Site B in Neuroligin-1 Binds to Aβ and Acts as a Neprilysin Inhibitor” (Molecular Neurobiology, 2024):
Bridges are numbered along the chain shown (N, C = ends). Roman numbers before positions name the chains, in order. Where no end group is shown, it is not given here.

B1: NL1: recombinant rat neuroligin-1, soluble ectodomain (R&D systems) (protein, UniProt Q62765 46-697, looked up)
extracellular domain: QKLDDVDPLVTTNFGKIRGIKKELNNEILGPVIQFLGVPYAAPPTGEHRFQPPEPPSPWSDIRNATQFAPVCPQNIIDGRLPEVMLPVWFTNNLDVVSSYVQDQSEDCLYLNIYVPTEDVKRISKECARKPGKKICRKGDIRDSGGPKPVMVYIHGGSYMEGTGNLYDGSVLASYGNVIVITVNYRLGVLGFLSTGDQAAKGNYGLLDLIQALRWTSENIGFFGGDPLRITVFGSGAGGSCVNLLTLSHYSEGNRWSNSTKGLFQRAIAQSGTALSSWAVSFQPAKYARILATKVGCNVSDTVELVECLQKKPYKELVDQDVQPARYHIAFGPVIDGDVIPDDPQILMEQGEFLNYDIMLGVNQGEGLKFVENIVDSDDGVSASDFDFAVSNFVDNLYGYPEGKDVLRETIKFMYTDWADRHNPETRRKTLLALFTDHQWVAPAVATADLHSNFGSPTYFYAFYHHCQTDQVPAWADAAHGDEVPYVLGIPMIGPTELFPCNFSKNDVMLSAVVMTYWTNFAKTGDPNQPVPQDTKFIHTKPNRFEEVAWTRYSQKDQLYLHIGLKPRVKEHYRANKVNLWLELVPHLHNLNDISQYTSTTTKVPSTDITLRPTRKNSTPVTSAFPTAKQDDPKQQPSPFSVDQRDYSTELS
modifications: extracellular domain

Key:
Aβ1-40 = target: T1, Aβ1-40 (Homo sapiens, UniProt P05067); assay: Competitive ELISA, binding to biotinylated Aβ1-40
T1 construct: biotinylated Aβ1-40, at final concentration 400 nM; purchased Bachem AG (Bubendorf, Switzerland) or Schafer-N; host or cells: synthetic peptide
T1 sequence (P05067 672-711): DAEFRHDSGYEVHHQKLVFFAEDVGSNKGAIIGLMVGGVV
Procedure: (§1) NL1 and NL1-derived peptide binding to Aβ was measured by competitive ELISA using the shorter Aβ1-40 peptide with a slower polymerization constant, optimized for this binding assay. Recombinant NL1 (3.125 nM) was immobilized on a poly-sorb 96-well plate (NUNC, Roskilde, Denmark) using sodium bicarbonate buffer (pH 9.6), and left overnight at 4 °C, followed by washing with PBST buffer (PBS supplemented with 0.1% [vol/vol] Tween-20, pH 7.4). In separate tubes, biotinylated Aβ1-40, at final concentration 400 nM, was premixed with serially diluted NL1 or NL1-derived peptides for 30 min. A reversed version of Aβ (Aβ40-1) was used as the respective negative control (Supplementary Fig. 1). After preincubation, the samples were centrifuged at 20,000 × g for 10 min at 4 °C and 100 μl of the mixtures were transferred in triplicates onto the precoated ELISA plate. Plates were incubated at room temperature for 4 h, followed by washing and incubation with streptavidin-HRP conjugate (1:1000, 1 h; Dako, Glostrup, Denmark). The signal was developed with TMB ONE (KEM-EN-TEC, Denmark), and the reaction was terminated with 0.2 M H2SO4. Absorbance was measured at 450 nm on a Wallac VICTOR2 1420 Multilabel Counter (PerkinElmer, Hvidovre, Denmark). KD values were derived by sigmoidal dose–response (variable slope) fit of NL1 and neurolide dose–response curves after log transformation according to GraphPad Prism (version 6, GraphPad, San Diego, CA, USA). Obtained inhibitory concentration IC50 value was interpreted as KD value.

Aβ40-1 = assay: Competitive ELISA with reversed Aβ (Aβ40-1) as negative control; format: binding; conditions: competitive ELISA with biotinylated reverse Aβ40-1; signal only at the highest neurolide concentration; p < 0.0001 versus Aβ1-40
Procedure: as §1, with “KD values were derived by sigmoidal dose–response (variable slope) fit of NL1 and neurolide dose–response curves after log transformation according to GraphPad Prism (version 6, GraphPad, San Diego, CA, USA). Obtained inhibitory concentration IC50 value was interpreted as KD value.” left out

WT and 5XFAD mice [1] = assay: Y-maze test; format: in vivo, mouse; conditions: 10 mg/kg s.c. three times a week for 10 weeks
Procedure: (§2) At the age of 2 months, 5XFAD and WT mice were injected subcutaneously (s.c.) with either neurolide (10 mg/kg) or saline in a volume of 0.1 ml/10 g of body weight three times a week for 10 weeks.
To estimate the effect of neurolide on spatial working memory, the Y-maze test was used, wherein the recording of alternation behavior was assessed. Mice were placed in the middle of the three-arm maze, joined with equal angle between all arms, and allowed to explore the maze freely for 8 min. The sequence and total number of entries into each arm were assessed in video recordings. Arm entry was considered completed when the hind paws of the mouse had been placed in the arm. An actual alternation was defined as entries into all three arms on consecutive choices. Percentage alternation was calculated as the ratio of actual to possible alternation (defined as total number of arm entries − 2) × 100, as follows: %Alternation=Number of alternations/Total arm entries-2×100.

WT and 5XFAD mice [2] = assay: Novel object recognition task; format: in vivo, mouse; conditions: 10 mg/kg s.c. three times a week for 10 weeks
Procedure: as §2
The novel object recognition assay is based on the innate tendency of animals to differentially explore novel and familiar objects and consists of habituation, training, short-term (2 h) and long-term (24 h) memory retention sessions. On day 1, the mice were habituated to the test area (a 35 × 35 cm box with a floor divided into 16 squares). Each mouse was placed into a box without objects and allowed to explore it freely for 5 min. During a training session, a mouse was placed in the test box and exposed to 2 identical nontransparent glass objects placed in the box. During 5 min, locomotion and exploration time for both objects were recorded. Exploration of an object was defined as pointing the nose to the object at a distance of ≤ 1 cm and/or touching it with the nose. Climbing or sitting on the object was not considered exploration. Short-term memory retention was evaluated 2 h after the training session, whereas long-term memory retention was evaluated 24 h after the training session. During both sessions, mice were exposed to the familiar object and to a novel object. The exploration time for the familiar and novel objects and locomotion were recorded for 5 min. Mice failing to explore one or both objects in the training trial were excluded from the statistical analysis.

[3] = cited from earlier work
Aβ1-42 = conditions: NL1 at 1 nM; cited from earlier work
Text: This higher accumulation of Aβ plaques promoted by the neurolide treatment prompted us to look for an explanation for this phenome ...

Molecule	binding affinity to Aβ, times lower than that of the parent sNL1 domain (Aβ1-40)	Kd (Aβ40-1) [µM]	Y-maze number of arms entered (WT and 5XFAD mice [1]; p-value for treatment 0.9532)	Y-maze alternation rate (WT and 5XFAD mice [1]; test at week 11)	recognition index, short-term memory (2 h) (WT and 5XFAD mice [2]; 5XFAD mice, versus vehicle, p < 0.05)	recognition index, long-term memory (24 h) (WT and 5XFAD mice [2]; WT and 5XFAD mice, same tendency as at 2 h)	recognition index, short-term memory (2 h) (WT and 5XFAD mice [2]; WT mice, vehicle higher than neurolide, p < 0.01)	passage of the blood–brain-barrier [3]	plasma/CSF ratio ([3]; systemically given)	levels in CSF ([3]; within 30 min after single s.c. administration)	effect on Aβ aggregation at low concentration (Aβ1-42)
I: SEGNRWSNSTKGLFQRAKK-NH2 / II: SEGNRWSNSTKGLFQRAK / III: SEGNRWSNSTKGLFQRA / IV: SEGNRWSNSTKGLFQRA (amide I:18-IV:C, I:19-II:C, II:18-III:C; C-terminus assumed) [neurolide]	approximately 2 times	7.5	had no effect	had no effect	significantly enhanced	no longer statistically significant	impairs memory	in the range of nanograms	approximately 20	nanogram/low microgram levels	–
B1	–	–	–	–	–	–	–	–	–	–	accelerated the aggregation
